Laboratory results published in paper PMC11110727, “Exploiting thiol-functionalized benzosiloxaboroles for achieving diverse substitution patterns – synthesis, characterization and biological evaluation of promising antibacterial agents” (RSC Medicinal Chemistry, 2024).
Converted amounts (≈) assume the structure as drawn.

Experiments:
S. marcescens ATCC 13880 = experiment: Antibacterial activity: MIC/MBC, MIC with PAβN, disc-diffusion; format: cell-based, Serratia marcescens; conditions: Serratia marcescens, ATCC13880; S. marcescens ATCC 13880; read-out: MIC
Summary of the method: (§1)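 Strains were subcultured twice on TSA at 30 °C. They were then tested by disc diffusion (EUCAST/CLSI), by CLSI broth-microdilution MIC in Mueller–Hinton II broth and by CLSI MBC, with compounds in DMSO.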

S. cerevisiae ATCC 9763 = experiment: Antifungal activity: MIC/MFC, disc-diffusion; format: cell-based, Saccharomyces cerevisiae; conditions: for diameter of inhibition zone / MFC: S. cerevisiae ATCC 9763; for diameter of inhibition zone: (-) = zone not observed, paper discs 9 mm; for MIC / MFC: Saccharomyces cerevisiae, ATCC9763; for MIC: read-out: MIC
Summary of the method: (§2)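 Reference agents: fluconazole for yeasts, linezolid for Gram-positive bacteria. Testing used disc diffusion and MIC determination under EUCAST and CLSI recommendations, with MBC/MFC per CLSI. Inocula came from two subcultures at 30 °C for 24–48 h.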

[1] = test system: C. guilliermondii IBA 155; experiment: Antifungal activity: MIC/MFC, disc-diffusion; format: cell-based; conditions: for diameter of inhibition zone / MFC: C. guilliermondii IBA 155; for diameter of inhibition zone: (-) = zone not observed, paper discs 9 mm; for MIC / MFC: Meyerozyma guilliermondii, IBA155; for MIC: read-out: MIC
Summary of the method: as §2

C. tropicalis ATCC 750 = experiment: Antifungal activity: MIC/MFC, disc-diffusion; format: cell-based; conditions: for diameter of inhibition zone: C. tropicalis ATCC 750, (-) = zone not observed, paper discs 9 mm; for MIC: Candida tropicalis, ATCC750, read-out: MIC
Summary of the method: as §2

[2] = test system: C. parapsilosis ATCC 22019; experiment: Antifungal activity: MIC/MFC, disc-diffusion; format: cell-based; conditions: for diameter of inhibition zone: C. parapsilosis ATCC 22019, (-) = zone not observed, paper discs 9 mm; for MIC: Lodderomyces parapsilosis, ATCC22019, read-out: MIC
Summary of the method: as §2

K. pneumoniae ATCC 13883 = experiment: Antibacterial activity: MIC/MBC, MIC with PAβN, disc-diffusion; format: cell-based, Klebsiella pneumoniae; conditions: K. pneumoniae ATCC 13883; for MIC: Klebsiella pneumoniae, ATCC13883, read-out: MIC
Summary of the method: as §1

[3] = test system: S. aureus ATCC 43300 MRSA; experiment: Antibacterial activity: MIC/MBC determination and disc-diffusion; format: cell-based; conditions: Staphylococcus aureus, S. aureus ATCC 43300 MRSA; for MIC: read-out: MIC; for MBC: read-out: MBC (first MBC where Eagle effect)
Summary of the method: (§3)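 MIC values come from CLSI/EUCAST-based dilution testing, with cidal concentrations (MBC or MFC) assessed by CLSI procedures and zones by disc diffusion. Compounds were prepared in DMSO.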

[4] = test system: S. epidermidis ATCC 12228; experiment: as above; format: cell-based; conditions: Staphylococcus epidermidis, ATCC12228, S. epidermidis ATCC 12228; for MIC: read-out: MIC
Summary of the method: as §3

E. faecalis ATCC 29212 = experiment: as above; format: cell-based; conditions: Enterococcus faecalis, ATCC29212, E. faecalis ATCC 29212; for MIC: read-out: MIC
Summary of the method: as §3

E. faecium ATCC 6057 = experiment: as above; format: cell-based; conditions: Enterococcus faecium, ATCC6057; E. faecium ATCC 6057; read-out: MIC
Summary of the method: as §3

Structure (SMILES) | MIC (S. marcescens ATCC 13880) [µg/mL] | diameter of inhibition zone (S. cerevisiae ATCC 9763) [mm] | MIC (S. cerevisiae ATCC 9763) [µg/mL] | diameter of inhibition zone [1] [mm] | MIC [1] [µg/mL] | diameter of inhibition zone (C. tropicalis ATCC 750) [mm] | MIC (C. tropicalis ATCC 750) [µg/mL] | diameter of inhibition zone [2] [mm] | MIC [2] [µg/mL] | MIC (K. pneumoniae ATCC 13883) [µg/mL] | MIC [3] [µg/mL] | MIC [4] [µg/mL] | MIC (E. faecalis ATCC 29212) [µg/mL] | MIC (E. faecium ATCC 6057) [µg/mL] | MFC (S. cerevisiae ATCC 9763) [µg/mL] | MFC [1] [µg/mL] | MBC [3] [µg/mL] | MBC [4] [µg/mL] | MBC (E. faecalis ATCC 29212) [µg/mL] | -fold reduction of MIC in the presence of PAβN (K. pneumoniae ATCC 13883; PAβN 20 μg mL^−1, MHB + 1 mM MgSO4)
C[Si]1(C)OB(O)c2cc(F)c(SC3CC(=O)N(c4ccc(F)cc4)C3=O)c(F)c21 (stereo not drawn) [Compound 14, 3-((5,7-Difluoro-3-hydroxy-1,1-dimethyl-1,3-dihydrobenzo[c][1,2,5]oxasilaborol-6-yl)thio)-1-(4-fluorophenyl)pyrrolidine-2,5-dione] | > 200 | 30 | 50 (≈ 114 µM) | 31 | 100 (≈ 229 µM) | 20 | 200 (≈ 457 µM) | 27 | 100 (≈ 229 µM) | > 200 | 50 (≈ 114 µM) | 50 (≈ 114 µM) | 25 (≈ 57.2 µM) | 50 (≈ 114 µM) | – | – | – | – | – | –
C[Si]1(C)OB(O)c2ccc(SC3CC(=O)N(c4ccc(F)cc4)C3=O)c(F)c21 (stereo not drawn) [Compound 15, 3-((7-Fluoro-3-hydroxy-1,1-dimethyl-1,3-dihydrobenzo[c][1,2,5]oxasilaborol-6-yl)thio)-1-(4-fluorophenyl)pyrrolidine-2,5-dione] | > 200 | 26 | 200 (≈ 477 µM) | 28 | 200 (≈ 477 µM) | 14 | > 200 | 23 | 200 (≈ 477 µM) | > 200 | 25 (≈ 59.6 µM) | 12.5 (≈ 29.8 µM) | 12.5 (≈ 29.8 µM) | 25 (≈ 59.6 µM) | – | – | – | – | – | –
C[Si]1(C)OB(O)c2cc(F)c(SC3CC(=O)N(c4ccc(Br)c(C(F)(F)F)c4)C3=O)c(F)c21 (stereo not drawn) [Compound 16, 1-(4-Bromo-3-(trifluoromethyl)phenyl)-3-((5,7-difluoro-3-hydroxy-1,1-dimethyl-1,3-dihydrobenzo[c][1,2,5]oxasilaborol-6-yl)thio)pyrrolidine-2,5-dione] | > 200 | 35 | 6.25 (≈ 11 µM) | 30 | 12.5 (≈ 22.1 µM) | 19 | 50 (≈ 88.3 µM) | 24 | 50 (≈ 88.3 µM) | > 200 | 50 (≈ 88.3 µM) | 50 (≈ 88.3 µM) | 25 (≈ 44.2 µM) | 50 (≈ 88.3 µM) | 50 (≈ 88.3 µM) | 50 (≈ 88.3 µM) | 100 (≈ 177 µM) | 100 (≈ 177 µM) | 200 (≈ 353 µM) | –
C[Si]1(C)OB(O)c2ccc(SC3CC(=O)N(c4ccc(Br)c(C(F)(F)F)c4)C3=O)c(F)c21 (stereo not drawn) [Compound 17, 1-(4-Bromo-3-(trifluoromethyl)phenyl)-3-((7-fluoro-3-hydroxy-1,1-dimethyl-1,3-dihydrobenzo[c][1,2,5]oxasilaborol-6-yl)thio)pyrrolidine-2,5-dione] | > 200 | 33 | 6.25 (≈ 11.4 µM) | 27 | 50 (≈ 91.2 µM) | 14 | 100 (≈ 182 µM) | 22 | 50 (≈ 91.2 µM) | > 200 | 25 (≈ 45.6 µM) | 12.5 (≈ 22.8 µM) | 12.5 (≈ 22.8 µM) | 25 (≈ 45.6 µM) | 100 (≈ 182 µM) | 200 (≈ 365 µM) | 100 (≈ 182 µM) | 100 (≈ 182 µM) | 200 (≈ 365 µM) | –
C[Si]1(C)OB(O)c2cc(F)c(SCCC(=O)OCCCCCC[n+]3ccccc3)c(F)c21 [Compound 18, 1-(6-((3-((5,7-difluoro-3-hydroxy-1,1-dimethyl-1,3-dihydrobenzo[c][1,2,5]oxasilaborol-6-yl)thio)propanoyl)oxy)hexyl)pyridin-1-ium trifluoromethanesulfonate] | > 400 | – | > 400 | – | > 400 | – | 400 | 14 | 400 | > 400 | 50 | 50 | 200 | 100 | – | – | 200 | 200 | – | –
C[Si]1(C)OB(O)c2ccc(SCCC(=O)OCCCCCC[n+]3ccccc3)c(F)c21 [Compound 19, 1-(6-((3-((7-Fluoro-3-hydroxy-1,1-dimethyl-1,3-dihydrobenzo[c][1,2,5]oxasilaborol-6-yl)thio)propanoyl)oxy)hexyl)pyridin-1-ium trifluoromethanesulfonate] | > 400 | – | > 400 | – | > 400 | 15 | 400 | 16 | 400 | > 400 | 25 | 25 | 100 | 100 | – | – | 100 | 100 | 400 | –
C[Si]1(C)OB(O)c2cc(F)c(SCCS(=O)(=O)c3ccccc3)c(F)c21 [Compound 20, 5,7-Difluoro-1,1-dimethyl-6-((2-(phenylsulfonyl)ethyl)thio)benzo[c][1,2,5]oxasilaborol-3(1H)-ol] | > 400 | 16 | 400 (≈ 965 µM) | – | > 400 | – | > 400 | – | > 400 | > 400 | 6.25 (≈ 15.1 µM) | 25 (≈ 60.3 µM) | 100 (≈ 241 µM) | 100 (≈ 241 µM) | – | – | 200 (≈ 483 µM) | 400 (≈ 965 µM) | – | 4 -fold
C[Si]1(C)OB(O)c2ccc(SCCS(=O)(=O)c3ccccc3)c(F)c21 [Compound 21, 7-Fluoro-1,1-dimethyl-6-((2-(phenylsulfonyl)ethyl)thio)benzo[c][1,2,5]oxasilaborol-3(1H)-ol] | > 400 | 30 | 6.25 (≈ 15.8 µM) | – | > 400 | – | > 400 | – | 400 (≈ 1010 µM) | > 400 | 12.5 (≈ 31.5 µM) | 25 (≈ 63.1 µM) | 200 (≈ 505 µM) | 200 (≈ 505 µM) | 100 (≈ 252 µM) | – | 400 (≈ 1010 µM) | – | – | –
CC(=O)CSc1ccc2c(c1F)[Si](C)(C)OB2O [Compound 22, 1-((7-Fluoro-3-hydroxy-1,1-dimethyl-1,3-dihydrobenzo[c][1,2,5]oxasilaborol-6-yl)thio)propan-2-one] | > 400 | 17 | 400 (≈ 1410 µM) | – | > 400 | – | > 400 | – | > 400 | > 400 | 6.25 (≈ 22 µM) | 6.25 (≈ 22 µM) | 25 (≈ 88 µM) | 25 (≈ 88 µM) | – | – | 200 (≈ 704 µM) | 12.5 (≈ 44 µM) | 400 (≈ 1410 µM) | –
